The record followed here is patent US20170007559A1, “COMPOSITIONS AND METHODS FOR PROTECTING COLONIC EPITHELIAL BARRIER FUNCTION” (The University of Tennessee Research Foundation, priority 2015, published 2017).

The test system of test [1] is reduced and oxidized protein thiols. Kind of test: Protein thiol assay in colon and ileum after total body irradiation. The test is classed as in vivo, mouse. The settings on record: TBI 4 Gy, 2 hours post irradiation. As to the method:
In the first study, adult female (12-14 week's age) mice were subjected to total body irradiation (4 Gy). At 2-24 hours post-irradiation (IR), the integrity of colonic epithelial TJs, AJs and actin cytoskeleton was examined. In a second study, mice were randomized to four groups: Sham (control), IR, NAC and NAC+IR, and fed a liquid diet with (NAC and NAC+IR) or without (Sham and IR) 20 mM NAC for 5 days prior to irradiation. IR and NAC+IR mice were subjected to total body irradiation (4 Gy), while Sham and NAC mice were sham-treated. At 2 hours post-irradiation, colon and ileum were collected and examined for oxidative stress and epithelial junctional integrity. At the end of experiment, gut permeability was measured as described below. Colon and ileum segments were stored frozen for further analyses. Protein thiols in colonic sections were assessed as described before. Reduced protein thiols were evaluated by staining cryosections colon with BODIPY FL-N-(2-aminoethyl) maleimide (Flm) and confocal microscopy at excitation and emission wavelengths, 490 nm and 534 nm, respectively. For oxidized protein thiols, the reduced protein thiol was first alkylated with N-ethylmaleimide followed by reduction of oxidized protein thiols with tris (2-carboxyethyl) phosphine prior to staining with Flm. […] Fluorescence images collected and fluorescence quantitated by Image J software.

Test [2] relates to Caco-2 cell monolayers. Kind of test: Radiation-induced redistribution of TJ proteins in Caco-2 cell monolayers. The test is classed as cell-based. The settings on record: NAC 10 mM pretreatment for one hour, radiation 4 Gy. The protocol:
Therefore, we evaluated the effect of radiation on barrier function and TJ proteins in Caco-2 and m-ICC12 cell monolayers in vitro. Barrier function was evaluated by measuring transepithelial electrical resistance (TER) and transepithelial flux of FITC-inulin in cell monolayers grown on transwell inserts. Cell monolayers were also fixed and stained for occludin and ZO-1 for confocal microscopy.
The effect of LPA was also tested in m-ICC12 cells at varying doses of radiation. LPA blocked IRR-induced redistribution of ZO-1 (FIG. 14C). […] These models can be used for further mechanistic studies.

The subject of test [3] is intestinal mucosal barrier function. The test is described as follows: Gut permeability in vivo, vascular-to-luminal flux of FITC-inulin after total body irradiation. More on the design: species or system mouse. The protocol: In the first study, adult female (12-14 week's age) mice were subjected to total body irradiation (4 Gy). At 2-24 hours post-irradiation (IR), the integrity of colonic epithelial TJs, AJs and actin cytoskeleton was examined. In a second study, mice were randomized to four groups: Sham (control), IR, NAC and NAC+IR, and fed a liquid diet with (NAC and NAC+IR) or without (Sham and IR) 20 mM NAC for 5 days prior to irradiation. IR and NAC+IR mice were subjected to total body irradiation (4 Gy), while Sham and NAC mice were sham-treated. At 2 hours post-irradiation, colon and ileum were collected and examined for oxidative stress and epithelial junctional integrity. At the end of experiment, gut permeability was measured as described below. Colon and ileum segments were stored frozen for further analyses. Mucosal barrier dysfunction was evaluated by measuring gut permeability to FITC-inulin (6 kDa). On the last day of experiment, mice were intravenously injected with FITC-inulin (50 mg/ml solution; 2 μl/g body weight) via tail vein. One hour after injection, blood samples were collected by cardiac puncture under isoflurane anesthesia for plasma preparation. Luminal contents from colon and ileum were flushed with 0.9% saline. Fluorescence in plasma and luminal flushing was measured using fluorescence plate reader. Fluorescence values in the luminal flushing were normalized to fluorescence values in corresponding plasma samples and calculated as percent of amount injected.

Test [4] concerns colonic epithelial TJs, AJs and actin cytoskeleton. The test is described as follows: Immunofluorescence of TJ and AJ proteins and F-actin in mouse intestine after total body irradiation (4 Gy). The format is in vivo. The settings on record: 20 mM NAC in liquid diet for 5 days prior to TBI 4 Gy, 2 hours post irradiation. The protocol: (§1) In the first study, adult female (12-14 week's age) mice were subjected to total body irradiation (4 Gy). At 2-24 hours post-irradiation (IR), the integrity of colonic epithelial TJs, AJs and actin cytoskeleton was examined. In a second study, mice were randomized to four groups: Sham (control), IR, NAC and NAC+IR, and fed a liquid diet with (NAC and NAC+IR) or without (Sham and IR) 20 mM NAC for 5 days prior to irradiation. IR and NAC+IR mice were subjected to total body irradiation (4 Gy), while Sham and NAC mice were sham-treated. At 2 hours post-irradiation, colon and ileum were collected and examined for oxidative stress and epithelial junctional integrity. At the end of experiment, gut permeability was measured as described below. Colon and ileum segments were stored frozen for further analyses.
Cryo-sections of colon (10 μm thickness) and ileum (12 μm thickness) were fixed in acetone methanol mixture (1:1) at […] for 2 min and rehydrated in phosphate buffered saline (PBS). Sections were permeabilized with 0.5% Triton X-100 in PBS for 15 min and blocked in 4% non-fat milk in TBST (20 mM Tris, pH 7.2 and 150 mM NaCl). It was then incubated for one hour with primary antibodies (mouse monoclonal anti-occludin and rabbit polyclonal anti-ZO-1 antibodies or mouse monoclonal E-cadherin and rabbit polyclonal anti-β-catenin antibodies), followed by incubation for one hour with secondary antibodies (AlexaFluor-488-conjugated anti-mouse IgG and Cy3-conjugated anti-rabbit IgG antibodies from Molecular Probes, Eugene, Oreg.) containing Hoechst 33342. The fluorescence was examined by using a confocal microscope (Zeiss 710) and images from x-y sections (1 μm) were collected using Zen software. Images were stacked using the Image J software (NIH) and processed by Adobe Photoshop (Adobe Systems Inc., San Jose, Calif.).
Studies were performed to evaluate the effect of RP-1 on radiation-induced redistribution of TJ and AJ proteins in mouse colon in vivo. Mice were subjected to TBI (4 Gy); in some groups, animals received a one-time injection of RP-1 (0.1 mg/kg) 30 min prior to IRR. At 2 hours post-IRR, cryosections of colon were stained for TJ and AJ proteins, images collected by confocal microscopy and fluorescence measured by densitometric analysis.

Test [5] deals with colonic loops. Kind of test: Inulin absorption from the lumen of isolated colonic loops of irradiated mice. The settings on record: loops prepared 3 hours post irradiation from NAC-fed, incubated 75 min. The test is classed as in vivo, mouse. The protocol: At 3 hours post irradiation, colonic loops were prepared and filled with 0.15 ml of 0.9% saline containing FITC-inulin (0.05 mg/ml) and incubated for 75 min in an incubator. Luminal contents were measured for fluorescence to evaluate inulin absorption from colonic lumen.

Test [6] deals with detergent-insoluble fractions of TJ and AJ proteins. The test is described as follows: Immunoblot of TJ and AJ proteins in detergent-insoluble fraction of distal colonic mucosa after total body irradiation. The settings on record: 20 mM NAC in liquid diet for 5 days prior to TBI 4 Gy, 2 hours post irradiation. The format is in vivo, mouse. As to the method:
as §1, with “Colon and ileum segments were stored frozen for further analyses.” left out
Actin-rich detergent-insoluble fraction was prepared as described previously (Elias, B. C.; Suzuki, T.; Seth, A.; Giorgianni, F.; Kale, G.; Shen, L.; Turner, J. R.; Naren, A.; Desiderio, D. M.; Rao, R. Phosphorylation of Tyr-398 and Tyr-402 in occludin prevents its interaction with ZO-1 and destabilizes its assembly at the tight junctions. J Biol Chem 284:1559-1569; 2009; Kale, G.; Naren, A. P.; Sheth, P.; Rao, R. K. Tyrosine phosphorylation of occludin attenuates its interactions with ZO-1, ZO-2, and ZO-3. Biochem Biophys Res Commun 302:324-329; 2003.). […] Protein content was measured by BCA method (Pierce Biotechnology, Rockford, Ill.). […]

As for `CC(=O)N[C@@H](CS)C(=O)O` [NAC, N-acetyl L-cysteine], in test [1] (NAC fed mice, confocal images), the “radiation-induced decrease in stain for reduced protein thiols and increase in stain for oxidized protein thiols” value is reported as “absent”. The “radiation-induced conversion of reduced protein thiols into oxidized protein thiols, densitometric analysis of fluorescence” value in test [1] (NAC feeding) is on record as “attenuates”. Moreover, the “radiation-induced loss of junctional occludin and ZO-1” value in test [2] is “significantly blocked”. The “mucosal permeability in colon or ileum, NAC by itself” value in test [3] (NAC-fed, sham-treated mice (no irradiation)) is recorded as “no significant influence”. In addition, the “radiation-induced increase in colonic mucosal permeability to FITC-inulin” value in test [3] (colon, 20 mM NAC in liquid diet for 5 days prior to TBI 4 Gy, in vivo flux) is recorded as “effectively attenuated”. For the same compound, the “radiation-induced increase in inulin permeability in the ileum” value in test [3] (ileum, NAC supplementation in diet prior to TBI 4 Gy, in vivo flux) is reported as “blocked”. In addition, in test [4] (colon and ileum), the “radiation-induced redistribution of Cldn-3” value is “blocked”; the “radiation-induced redistribution of E-cadherin and β-catenin from the intercellular junctions” value was “absent”; the “radiation-induced redistribution of occludin and ZO-1 from the intercellular junctions” value was “almost a complete attenuation”. For the same compound, the “radiation-induced loss of F-actin (actin cytoskeleton), colon” value in test [4] (colon) is “almost complete”. In addition, in test [4] (ileum), the “radiation-induced loss of F-actin (actin cytoskeleton), ileum” value is reported as “only partially protected”. In test [5], the “radiation-induced increase in inulin absorbed from the lumen of colonic loops” value was “absent”. In test [6], the “radiation-induced loss of detergent-insoluble fractions of TJ and AJ proteins” value is recorded as “blocked”.
